According to patent publication US20240060047A1, “CELLS WITH SUSTAINED TRANSGENE EXPRESSION” (BlueRock Therapeutics LP, priority 2019, published 2024):

Tests used:
[1] = tested on: GAPDH-targeted RapaCasp9 PSC line; assay: Flow cytometric analysis of cleaved Caspase 3 after rapamycin treatment; assay type: cell-based, human; conditions: 5nM or 10 nM rapamycin, 24 hours of treatment
Protocol: A GAPDH-targeted RapaCasp9 PSC line was treated with either 5nM or 10 nM of rapamycin for 1, 2, 4 or 24 hours, and cells were harvested for flow cytometric analysis after each timepoint (FIG. 17). The primary antibody used was an anti-human/mouse cleaved caspase-3 conjugated to an Alexa Fluor® 488 […]. The primary antibody detects human and mouse Caspase 3 cleaved at Asp175. Caspase 3 is an executioner caspase that functions downstream of the initiator caspase, Caspase 9, in the apoptotic cascade. […] Upon induction of apoptosis through either cell stress or activation, it undergoes proteolysis into cleaved Caspase 3 subunits. […] There was negligible detection of cleaved Caspase 3 for edited PSCs not treated with rapamycin.

[2] = tested on: GAPDH locus; assay: gRNA cutting efficiency by ICE analysis, GAPDH locus; assay type: cell-based; conditions: RNP with Cas9 nucleofected into human PSCs, gDNA at 72 hours
Protocol: (§1) CRISPR-Cas9 gene editing was performed to insert transgenes into the intended STEL sites in the following experiments. Three guide RNAs (gRNAs) were designed computationally to target the 3′ UTR of GAPDH proximal to the stop codon. Five gRNAs were designed computationally to target the 3′ UTR of RPL13A proximal to the stop codon. These gRNAs were designed to have a low number of off-target sites and have a high predicted activity against the target sequence.
(§2) To test gRNA cutting efficiency, gRNAs complexed with Cas9 nuclease were delivered as ribonucleoproteins (RNPs) separately into human PSCs via nucleofection. At 72 hours following nucleofection, gDNA was extracted from each pool of nucleofected cells. A region around the GAPDH or RPL13A locus intended cut site was PCR-amplified using the following primers: […]
(§3) Overall cutting efficiency of each gRNA was determined by Inference of CRISPR Edits (ICE) Analysis by comparing a Sanger sequencing chromatogram from unedited cells to the Sanger sequencing chromatogram from each gRNA condition.

[3] = tested on: RPL13A locus; assay: gRNA cutting efficiency by ICE analysis, RPL13A locus; assay type: cell-based; conditions: RNP with Cas9 nucleofected into human PSCs, gDNA at 72 hours
Protocol: as §1, §2, §3

How did the “cells staining for cleaved Caspase 3” value [1] turn out when `CO[C@H]1C[C@@H]2CC[C@@H](C)[C@@](O)(O2)C(=O)C(=O)N2CCCC[C@H]2C(=O)O[C@H]([C@H](C)C[C@@H]2CC[C@@H](O)[C@H](OC)C2)CC(=O)[C@H](C)/C=C(\C)[C@@H](O)[C@@H](OC)C(=O)[C@H](C)C[C@H](C)/C=C/C=C/C=C/1C` [rapamycin] was run?
Its value is greater than 99%.

For “5′-CUUCCUCUUGUGCUCUUGCU-3′ (SEQ ID NO:7) (listed as RNA, chemistry not given here) [GAPDH gRNA, guide RNA targeting the 3′ UTR of GAPDH proximal to the stop codon]”, which relative cutting efficiency [2] is on record?
The relative cutting efficiency was “highest relative cutting efficiencies”.

Which relative cutting efficiency [3] does the source give for “5′-GGAAGGGCAGGCAACGCAUG-3′ (SEQ ID NO:8) (listed as RNA, chemistry not given here) [RPL13A gRNA, guide RNA targeting the 3′ UTR of RPL13A proximal to the stop codon]” here?
The relative cutting efficiency was “highest relative cutting efficiencies”.
